According to PubChem BioAssay AID256 (DTP/NCI, 2004):
Toxic doses and inconclusive results are not listed. The calls were made as follows: active = survival T/C of 150% or more; inactive = T/C below 125% in these data.

Test system: CD2F1 mice, L1210 leukemia ip, survival T/C
Test: NCI In Vivo Anticancer Drug Screen. Data for tumor model L1210 Leukemia (intraperitoneal) in CD2F1 (CDF1) mice
Conditions: higher = longer survival
Outline: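 Mice carrying a transplanted tumor received test compound or vehicle alone. The value is the measurement in the treated group divided by that in the vehicle-treated control group.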

[1] = endpoint: mean survival time, dose: 100.0 mg/kg/injection, schedule: Q01DX009 (ip), vehicle: saline with Tween-80
[2] = endpoint: mean survival time, dose: 200.0 mg/kg/injection, schedule: Q01DX009 (ip), vehicle: saline with Tween-80
[3] = endpoint: mean survival time, dose: 400.0 mg/kg/injection, schedule: Q01DX009 (ip), vehicle: saline with Tween-80

Measured: T/C

CC1=C(N)C(=O)c2c(COC(N)=O)c3n(c2C1=O)C[C@H]1N[C@@H]31
inactive: endpoint: mean survival time, dose: 3.0 mg/kg/injection, schedule: Q01DX001 (ip), vehicle: distilled water + Tween-80 105 % of control | endpoint: mean survival time, dose: 6.0 mg/kg/injection, schedule: Q01DX001 (ip), vehicle: distilled water + Tween-80 100 % of control | endpoint: mean survival time, dose: 12.0 mg/kg/injection, schedule: Q01DX001 (ip), vehicle: distilled water + Tween-80 100 % of control | endpoint: mean survival time, dose: 24.0 mg/kg/injection, schedule: Q01DX001 (ip), vehicle: distilled water + Tween-80 100 % of control | endpoint: mean survival time, dose: 48.0 mg/kg/injection, schedule: Q01DX001 (ip), vehicle: distilled water + Tween-80 94 % of control

CC(C)C(O)C(C)[N+](=O)[O-] (centres undefined)
inactive: endpoint: mean survival time, dose: 25.0 mg/kg/injection, schedule: Q01DX001 (ip), vehicle: saline with Tween-80 86 % of control | endpoint: mean survival time, dose: 50.0 mg/kg/injection, schedule: Q01DX001 (ip), vehicle: saline with Tween-80 96 % of control

COc1cccc(CCC(=O)O)c1OC
inactive: endpoint: mean survival time, dose: 25.0 mg/kg/injection, schedule: Q01DX009 (ip), vehicle: Klucel (hydroxypropylcellulose) (HPC) 98 % of control | endpoint: mean survival time, dose: 50.0 mg/kg/injection, schedule: Q01DX009 (ip), vehicle: Klucel (hydroxypropylcellulose) (HPC) 101 % of control | endpoint: mean survival time, dose: 100.0 mg/kg/injection, schedule: Q01DX009 (ip), vehicle: Klucel (hydroxypropylcellulose) (HPC) 98 % of control | endpoint: mean survival time, dose: 200.0 mg/kg/injection, schedule: Q01DX009 (ip), vehicle: Klucel (hydroxypropylcellulose) (HPC) 87 % of control | endpoint: mean survival time, dose: 400.0 mg/kg/injection, schedule: Q01DX009 (ip), vehicle: Klucel (hydroxypropylcellulose) (HPC) 88 % of control

Cc1cc2ncn(CO)c2cc1C
inactive: [1] 105 % of control | [2] 100 % of control | [3] 111 % of control

NCC(=O)Nc1ccc(Cl)cc1C(=O)c1ccc[nH]1
inactive: endpoint: mean survival time, dose: 100.0 mg/kg/injection, schedule: Q01DX001 (ip), vehicle: saline 89 % of control | endpoint: mean survival time, dose: 100.0 mg/kg/injection, schedule: Q04DX003 (ip), vehicle: saline 94 % of control | endpoint: mean survival time, dose: 200.0 mg/kg/injection, schedule: Q01DX001 (ip), vehicle: saline 89 % of control | endpoint: mean survival time, dose: 200.0 mg/kg/injection, schedule: Q04DX003 (ip), vehicle: saline 94 % of control | endpoint: mean survival time, dose: 400.0 mg/kg/injection, schedule: Q01DX001 (ip), vehicle: saline 92 % of control | endpoint: mean survival time, dose: 400.0 mg/kg/injection, schedule: Q04DX003 (ip), vehicle: saline 96 % of control

CC1(C)N=C(N)N=C(N)N1c1cccc(OCCOc2cccc(N)c2)c1
inactive: endpoint: mean survival time, dose: 25.0 mg/kg/injection, schedule: Q01DX001 (ip), vehicle: Klucel (hydroxypropylcellulose) (HPC) 97 % of control | endpoint: mean survival time, dose: 50.0 mg/kg/injection, schedule: Q01DX001 (ip), vehicle: Klucel (hydroxypropylcellulose) (HPC) 97 % of control

CC1CC2CCC1C2O (centres undefined)
inactive: endpoint: mean survival time, dose: 75.0 mg/kg/injection, schedule: Q01DX001 (ip), vehicle: saline 98 % of control | endpoint: mean survival time, dose: 150.0 mg/kg/injection, schedule: Q01DX001 (ip), vehicle: saline 91 % of control | endpoint: mean survival time, dose: 300.0 mg/kg/injection, schedule: Q01DX001 (ip), vehicle: saline 87 % of control

O=[N+]([O-])c1ccc(CSc2ncnc3c2ncn3C2OC(CO)C(O)C2O)cc1 (centres undefined)
inactive: endpoint: median survival time, dose: 0.1 mg/kg/injection, schedule: Q01DX009 (ip), vehicle: saline 100 % of control | endpoint: median survival time, dose: 1.0 mg/kg/injection, schedule: Q01DX009 (ip), vehicle: saline 105 % of control | endpoint: median survival time, dose: 10.0 mg/kg/injection, schedule: Q01DX009 (ip), vehicle: saline 107 % of control

Cc1cc(C)nc(NS(=O)(=O)c2ccc(NCN3C(=O)c4ccccc4C3=O)cc2)n1
inactive: endpoint: mean survival time, dose: 100.0 mg/kg/injection, schedule: Q01DX001 (ip), vehicle: saline with Tween-80 101 % of control | [1] 96 % of control | endpoint: mean survival time, dose: 200.0 mg/kg/injection, schedule: Q01DX001 (ip), vehicle: saline with Tween-80 107 % of control | [2] 94 % of control | endpoint: mean survival time, dose: 400.0 mg/kg/injection, schedule: Q01DX001 (ip), vehicle: saline with Tween-80 107 % of control | [3] 90 % of control

COc1cc2c(cc1OC)[C@@H]1C(=O)c3ccc4c(c3O[C@@H]1CO2)C[C@H](C(C)C)O4
inactive: endpoint: median survival time, dose: 6.25 mg/kg/injection, schedule: Q01DX005 (ip), vehicle: Klucel (hydroxypropylcellulose) (HPC) 107 % of control | endpoint: median survival time, dose: 12.5 mg/kg/injection, schedule: Q01DX005 (ip), vehicle: Klucel (hydroxypropylcellulose) (HPC) 115 % of control | endpoint: median survival time, dose: 18.0 mg/kg/injection, schedule: Q01DX005 (ip), vehicle: Klucel (hydroxypropylcellulose) (HPC) 113 % of control | endpoint: median survival time, dose: 25.0 mg/kg/injection, schedule: Q01DX005 (ip), vehicle: Klucel (hydroxypropylcellulose) (HPC) 115 % of control | endpoint: median survival time, dose: 30.0 mg/kg/injection, schedule: Q01DX005 (ip), vehicle: Klucel (hydroxypropylcellulose) (HPC) 118 % of control | endpoint: median survival time, dose: 100.0 mg/kg/injection, schedule: Q01DX005 (ip), vehicle: Klucel (hydroxypropylcellulose) (HPC) 100 % of control

COC(=O)c1ccccc1N=NNc1cccc(SC)c1
inactive: endpoint: mean survival time, dose: 50.0 mg/kg/injection, schedule: Q01DX009 (ip), vehicle: saline with Tween-80 95 % of control | [1] 103 % of control | [2] 97 % of control
